From US4987144A, “1,3-bis(1,2,4-triazol-1-yl)2-(4-trifluoromethylphenyl)propan-2-ol useful for the prevention and/or treatment of deep-seated mycosis” (SS Pharmaceutical Co., Ltd., priority 1989, dated 1991) come the findings set out here.

SMILES strings stand for the structures.

Series [1] relates to Candida albicans. The series is described as follows: Antimycotic activities of similar compounds in a manner similar to Test 1, oral administration (Referential Test). The format is in vivo, Candida albicans (in male ICR mice). Particulars: in Mus musculus, 336 h, read-out: T/C; for response vs control in vivo at 40 mg: Dose (mg) 40, oral. Here is the method:
(§1) Male ICR mice of 4 weeks old were used as groups, each consisted of 5 mice. Each mouse was inoculated at caudal vein with 2.8×106^6 cells of Candida albicans. From one hour after the inoculation, each test compound was dissolved in 0.5 mλ of 0.06 N hydrochloric acid which had been added with "0.2% TO-10M" (trade name; product of Nikko Chemicals Co., Ltd.) and was orally administered once a day, four times in total. The mice were observed until the 14th day after the inoculation of the fungus. The average survival days of each group was compared with those of the control group to determine T/C (%). [formula]
In a manner similar to Test 1, antimycotic activities of each of the test compounds shown below in Table 2 were investigated. As will be readily envisaged from the results, practically no antimycotic activities were observed from the oral administration of those compounds.

Another series is described as follows: Acute toxicity, oral. To be noted: mouse, in vivo, mice, P.O.
The subject of series [2] is Candida albicans. The series is described as follows: Antimycotic activities: survival of mice inoculated with Candida albicans, oral administration (Test 1). The format is in vivo, Candida albicans (in male ICR mice). To be noted: for T/C: once a day, four times, average survival days vs control, to 14th day after inoculation. Here is the method:
as §1

Series [3] can be described thus: Measurement of body weight variations (Test 2). The format is in vivo, male ICR mice. To be noted: for body weight: 2.5 mg/Kg; for body weight change after administration (in words): group administered with the compound.

With `Oc1cc(F)c(F)cc1C(O)(Cn1cncn1)Cn1cncn1`, the response vs control in vivo at 40 mg in the series on Candida albicans [1] stood at 125%.

On to `OC(Cn1cncn1)(Cn1cncn1)c1ccc(-c2ccc(F)cc2)cc1`, for which the response vs control in vivo at 40 mg with Candida albicans [1] is 136%.

For `COc1c(F)cc(C(O)(Cn2cncn2)Cn2cncn2)cc1F`, the response vs control in vivo at 40 mg in the series with Candida albicans [1] is 91%.

For the compound `N#Cc1ccc(C(O)(Cn2cncn2)Cn2cncn2)c(F)c1`, the response vs control in vivo at 40 mg with Candida albicans [1] amounted to 81%.

`OC(Cn1cncn1)(Cn1cncn1)c1ccc(F)cc1OCc1ccccc1`: the response vs control in vivo at 40 mg with Candida albicans [1] is 122%.

In general, LD50 refers to the dose at which mortality reaches 50%. Read a high LD50 as a less toxic substance. What is called T/C is the ratio of treated to control. The compound `OC(Cn1cncn1)(Cn1cncn1)c1ccc(C(F)(F)F)cc1` [Triazole compound (I), 1,3-bis(1,2,4-triazol-l-yl)-2-(4-trifluoromethylphenyl)propan-2-ol] yielded an LD50 in the series “Acute toxicity, oral” of 1200 mg/kg. The T/C in the series with Candida albicans [2] (1.25 mg/kg) amounted to 186%; in the series with Candida albicans [2] (2.5 mg/kg) it was 385%; in the series on Candida albicans [2] (5 mg/kg), 450%. In the series with Candida albicans [2] (compared with fluconazole), the “apothanasia effects upon oral administration (in words)” value is “greater than fulconazole”. Moreover, the body weight in series [3] (0 days after administration) worked out at 21.0 g; in series [3] (1 day after administration), 20.6 g; in series [3] (2 days after administration), 21.4 g; in series [3] (3 days after administration), 22.2 g; in series [3] (4 days after administration), 23.0 g; in series [3] (5 days after administration), 23.3 g. The body weight in series [3] (6 days after administration) stood at 23.1 g. Further, the “body weight change after administration (in words)” value in series [3] is given as “the body weight increased steadily”.

Take `OC(Cn1cncn1)(Cn1cncn1)c1ccc(F)cc1OCc1ccc(F)cc1`: in the series on Candida albicans [1], the response vs control in vivo at 40 mg was 117%.

For `OC(Cn1cncn1)(Cn1cncn1)c1cc(C(F)(F)F)cc(C(F)(F)F)c1`, the response vs control in vivo at 20 mg in the series on Candida albicans [1] (Dose (mg) 20, oral) amounted to 118%.

`OC(Cn1cncn1)(Cn1cncn1)c1ccc(F)cc1F` [Fluconazole]: the T/C stood at 143% in the series with Candida albicans [2] (1.25 mg/kg), 379% with Candida albicans [2] (2.5 mg/kg) and 443% in the series with Candida albicans [2] (5 mg/kg). Further, in series [3], the “body weight change after administration (in words)” value was “body weight reductions were observed”.

With `CC(=O)Nc1ccc(C(O)(Cn2cncn2)Cn2cncn2)c(F)c1`, the response vs control in vivo at 40 mg with Candida albicans [1] is 82%.

`CCCOc1cc(F)ccc1C(O)(Cn1cncn1)Cn1cncn1`: the response vs control in vivo at 40 mg with Candida albicans [1] was found to be 125%.

In the case of `OC(Cn1cncn1)(Cn1cncn1)c1cc(F)c(OCc2ccccc2)c(F)c1`, in the series with Candida albicans [1], the response vs control in vivo at 40 mg was found to be 73%.

Regarding `Oc1c(F)cc(C(O)(Cn2cncn2)Cn2cncn2)cc1F`, the response vs control in vivo at 40 mg in the series on Candida albicans [1] is 82%.
